Reference: patent USRE48461E1, “Modulation of androgen receptor expression” (Ionis Pharmaceuticals, Inc., priority 2012, dated 2021)
Oligonucleotides are written 5' to 3', each unit as a sugar letter and its base; * is a phosphorothioate linkage, no mark a phosphodiester; rarer units and linkages stand in square brackets, end groups in braces. Plain capitals give the bases only. k = constrained ethyl (cEt); [5mC] = 5-methylcytosine; d = 2'-deoxy (DNA)

Assays:
Type in all cases: cell-based, human
[1] = tested on: C4-2B MR cells; assay: Proliferation of MDV3100-resistant C4-2B cells (CellTiter 96); settings: 6 days
Procedure, shortened: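 Antisense oligonucleotides were added to the culture medium at 0.04, 0.20, 1.00 and 5.00 μM, with a non-targeting oligonucleotide as negative control. After 6 days of treatment, proliferation was read with CellTiter 96 AQueous One. Values are percent inhibition relative to untreated cells.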

[2] = tested on: 22RV1 cells; assay: 22RV1 cell proliferation (Example 32); settings: 5 days
Experimental: After a treatment period of 5 days in complete medium, the proliferative capacity of the cancer cells was measured with using CellTiter 96® AQueous One or CellTiter-Glo® Solution Cell Proliferation kit (Promega), following the manufacturer's instructions. […] Treatment with ISIS oligonucleotides in CSS+DHT medium reduced the proliferative capacity to a greater extent than treatment with MVD-3100. The proliferative capacity of cells cultured in CSS medium without DHT is 12% of untreated control levels.

[3] = tested on: VCaP cells; assay: VCaP apoptosis (Caspase-Glo 3/7); settings: complete medium, 72 hours
Experimental: After a treatment period of 72 hours in complete medium, apoptosis of the cancer cells was measured with Caspase-Glo 3/7 assay (Promega). Results are presented in Tables 117 and 118 as percent apoptosis of the cells, relative to non-treated cells.

[4] = tested on: TMPRSS2 mRNA; assay: TMPRSS2 mRNA levels in LMR20 cells; settings: for TMPRSS2 mRNA levels (% baseline value) after treatment with DHT / TMPRSS2 mRNA levels (% baseline value) after treatment with R1881 / TMPRSS2 mRNA levels (% baseline value) of cells without AR agonist treatment: LMR20 cells; for TMPRSS2 mRNA levels (% baseline value) after treatment with DHT: DHT 10 nM 72 hrs; for TMPRSS2 mRNA levels (% baseline value) after treatment with R1881: R1881 10 nM 72 hrs; for TMPRSS2 mRNA levels (% baseline value) of cells without AR agonist treatment: no AR agonist; for TMPRSS2 mRNA levels in LMR20 cells: with or without DHT/R1881
Experimental: LMR20 cells were plated at 1,500 cells per well in phenol red-free medium with CSS.

[5] = tested on: PSA mRNA; assay: PSA expression in LNCaP cells (complete, CSS+DHT medium); settings: for Percent inhibition of PSA expression in LNCaP cells cultured in CSS + DHT medium: CSS + DHT (1 nM) medium, 48 hrs; for Percent inhibition of PSA expression in LNCaP cells cultured in complete medium: 48 hours
Experimental: Cells were plated at 1,000 cells per well. […] ISIS 549148 was included as a negative control. […] After an incubation period of 48 hours, RNA levels of AR, PSA and TMPRSS2 were measured.
Cells were plated at 2,000 cells per well and cultured in phenol red-free RPMI supplemented with 5% charcoal stripped serum (Gibco) media for 16 hours. […] ISIS 549148 was included as a negative control. […] After an incubation period of 4 hrs, DHT was added to the medium to a final concentration of 1 nM as indicated. RNAs were collected 48 hrs later and levels of AR, PSA and TMPRSS2 were measured. In the absence of DHT, AR expression in LNCaP cells was 95%, PSA expression was 7% and TMPRSS2 expression was 24% compared to the untreated control.

[6] = tested on: TMPRSS2 mRNA; assay: Time-course TMPRSS2 expression in C4-2B cells
Experimental: C4-2B cells were plated at 1,000 cells per well in complete medium. […] ISIS 549148 was included as a negative control. […] After a treatment period of 8 hours, 24 hours, and 48 hours, AR expression was measured with primer probe set hAR-LTS00943. Results are presented in Tables 70-72 as percent expression of AR, relative to non-treated cells.
Expression analysis of prostate-specific antigen (PSA) and TMPRSS2 were also analyzed. Results are presented in Tables 73-75 as percent inhibition of PSA expression and Tables 76-78 as percent inhibition of TMPRSS2 expression, relative to non-treated cells.

Molecule: 549372 (kA*kA*kG*dT*dT*dG*dT*dA*dG*dT*dA*dG*dT*k[5mC]*kG*k[5mC]) [compound 549372]
- Percent inhibition of C4-2B MR cell proliferation ([1]; 0.04 μM): 0%
- Percent inhibition of C4-2B MR cell proliferation ([1]; 0.20 μM): 4%
- Percent inhibition of C4-2B MR cell proliferation ([1]; 1.00 μM): 25%
- Percent inhibition of C4-2B MR cell proliferation ([1]; 5.00 μM): 43%

Molecule: CNC(=O)c1ccc(N2C(=S)N(c3ccc(C#N)c(C(F)(F)F)c3)C(=O)C2(C)C)cc1F [MDV3100, 4-(3-(4-cyano-3-(trifluoromethyl)phenyl)-5,5-dimethyl-4-oxo-2-thioxoimidazolidin-1-yl)-2-fluoro-N-methylbenzamide, reference compound]
- Proliferation (% untreated control) in 22RV1 cells treated with MDV-3100 ([2]; 0.04 μM): 87%
- Proliferation (% untreated control) in 22RV1 cells treated with MDV-3100 ([2]; 0.2 μM): 83%
- Proliferation (% untreated control) in 22RV1 cells treated with MDV-3100 ([2]; 1.0 μM): 81%
- Proliferation (% untreated control) in 22RV1 cells treated with MDV-3100 ([2]; 5.0 μM): 74%
- proliferation of 22RV1 cells [2]: reduced proliferation of the cells in a dose dependent compared to the control
- Apoptosis (% untreated control) in VCaP cells treated with MDV-3100 ([3]; 5.0 nM): 528%
- Apoptosis (% untreated control) in VCaP cells treated with MDV-3100 ([3]; 0.04 μM): 186%
- Apoptosis (% untreated control) in VCaP cells treated with MDV-3100 ([3]; 0.2 μM): 210%
- Apoptosis (% untreated control) in VCaP cells treated with MDV-3100 ([3]; 1.0 μM): 612%
- apoptosis of VCaP cells [3]: increased apoptosis of the cells in a dose dependent compared to the control
- TMPRSS2 mRNA levels (% baseline value) after treatment with DHT ([4]; ASO 0.04 μM): 134 % baseline value
- TMPRSS2 mRNA levels (% baseline value) after treatment with DHT ([4]; ASO 0.20 μM): 144 % baseline value
- TMPRSS2 mRNA levels (% baseline value) after treatment with DHT ([4]; ASO 1.0 μM): 132 % baseline value
- TMPRSS2 mRNA levels (% baseline value) after treatment with DHT ([4]; ASO 5.0 μM): 124 % baseline value
- TMPRSS2 mRNA levels (% baseline value) after treatment with R1881 ([4]; ASO 0.20 μM): 125 % baseline value
- TMPRSS2 mRNA levels (% baseline value) after treatment with R1881 ([4]; ASO 1.0 μM): 133 % baseline value
- TMPRSS2 mRNA levels (% baseline value) after treatment with R1881 ([4]; ASO 5.0 μM): 139 % baseline value
- TMPRSS2 mRNA levels (% baseline value) of cells without AR agonist treatment ([4]; ASO 0.04 μM): 101 % baseline value
- TMPRSS2 mRNA levels (% baseline value) of cells without AR agonist treatment ([4]; ASO 0.20 μM): 119 % baseline value
- TMPRSS2 mRNA levels (% baseline value) of cells without AR agonist treatment ([4]; ASO 1.0 μM): 119 % baseline value
- TMPRSS2 mRNA levels (% baseline value) of cells without AR agonist treatment ([4]; ASO 5.0 μM): 141 % baseline value
- TMPRSS2 mRNA levels in LMR20 cells [4]: did not reduce either PSA or TMPRSS2 mRNA levels
- Percent inhibition of PSA expression in LNCaP cells cultured in CSS + DHT medium ([5]; 0.04 μM): 15%
- Percent inhibition of PSA expression in LNCaP cells cultured in CSS + DHT medium ([5]; 0.2 μM): 38%
- Percent inhibition of PSA expression in LNCaP cells cultured in CSS + DHT medium ([5]; 1 μM): 81%
- Percent inhibition of PSA expression in LNCaP cells cultured in CSS + DHT medium ([5]; 5.0 μM): 82%
- Percent inhibition of PSA expression in LNCaP cells cultured in complete medium ([5]; 0.04 μM): 0%
- Percent inhibition of PSA expression in LNCaP cells cultured in complete medium ([5]; 0.2 μM): 35%
- Percent inhibition of PSA expression in LNCaP cells cultured in complete medium ([5]; 1 μM): 84%
- Percent inhibition of PSA expression in LNCaP cells cultured in complete medium ([5]; 5.0 μM): 87%
- Percent inhibition of TMPRSS2 expression compared to the control group in 8 hours ([6]; 0.04 μM): 0%
- Percent inhibition of TMPRSS2 expression compared to the control group in 24 hours ([6]; 0.04 μM): 23%
- Percent inhibition of TMPRSS2 expression compared to the control group in 48 hours ([6]; 0.04 μM): 5%
- Percent inhibition of TMPRSS2 expression compared to the control group in 8 hours ([6]; 0.2 μM): 6%
- Percent inhibition of TMPRSS2 expression compared to the control group in 24 hours ([6]; 0.2 μM): 31%
- Percent inhibition of TMPRSS2 expression compared to the control group in 48 hours ([6]; 0.2 μM): 16%
- Percent inhibition of TMPRSS2 expression compared to the control group in 8 hours ([6]; 1 μM): 45%
- Percent inhibition of TMPRSS2 expression compared to the control group in 24 hours ([6]; 1 μM): 63%
- Percent inhibition of TMPRSS2 expression compared to the control group in 48 hours ([6]; 1 μM): 46%
- Percent inhibition of TMPRSS2 expression compared to the control group in 8 hours ([6]; 5.0 μM): 52%
- Percent inhibition of TMPRSS2 expression compared to the control group in 24 hours ([6]; 5.0 μM): 72%
- Percent inhibition of TMPRSS2 expression compared to the control group in 48 hours ([6]; 5.0 μM): 59%
- TMPRSS2 expression ([6]; time course): also reduced downstream gene expressions but not as potently as that with the ISIS oligonucleotides

Molecule: 549458 (kG*kT*kT*dG*dA*dT*dT*dT*dA*dA*dT*dG*dG*kT*kT*kG) [compound 549458]
- Percent inhibition of C4-2B MR cell proliferation ([1]; 0.04 μM): 8%
- Percent inhibition of C4-2B MR cell proliferation ([1]; 0.20 μM): 16%
- Percent inhibition of C4-2B MR cell proliferation ([1]; 1.00 μM): 41%
- Percent inhibition of C4-2B MR cell proliferation ([1]; 5.00 μM): 56%
- TMPRSS2 mRNA levels (% baseline value) after treatment with DHT ([4]; ASO 0.04 μM): 127 % baseline value
- TMPRSS2 mRNA levels (% baseline value) after treatment with DHT ([4]; ASO 0.20 μM): 119 % baseline value
- TMPRSS2 mRNA levels (% baseline value) after treatment with DHT ([4]; ASO 1.0 μM): 106 % baseline value
- TMPRSS2 mRNA levels (% baseline value) after treatment with DHT ([4]; ASO 5.0 μM): 91 % baseline value
- TMPRSS2 mRNA levels (% baseline value) after treatment with R1881 ([4]; ASO 0.04 μM): 137 % baseline value
- TMPRSS2 mRNA levels (% baseline value) after treatment with R1881 ([4]; ASO 0.20 μM): 119 % baseline value
- TMPRSS2 mRNA levels (% baseline value) after treatment with R1881 ([4]; ASO 1.0 μM): 96 % baseline value
- TMPRSS2 mRNA levels (% baseline value) after treatment with R1881 ([4]; ASO 5.0 μM): 96 % baseline value
- TMPRSS2 mRNA levels (% baseline value) of cells without AR agonist treatment ([4]; ASO 0.04 μM): 110 % baseline value
- TMPRSS2 mRNA levels (% baseline value) of cells without AR agonist treatment ([4]; ASO 0.20 μM): 85 % baseline value
- TMPRSS2 mRNA levels (% baseline value) of cells without AR agonist treatment ([4]; ASO 1.0 μM): 54 % baseline value
- TMPRSS2 mRNA levels (% baseline value) of cells without AR agonist treatment ([4]; ASO 5.0 μM): 62 % baseline value

Molecule: GTTGATTTAATGGTTG (all phosphorothioate, sugars by position not given here; further chemistry not fully specified) [ISIS 549458]
- proliferation of C4-2B MR cells ([1]; 0.04-5.00 μM): reduced proliferation of the cells in a dose dependent manner more extensively than treatment with ISIS 554221
- TMPRSS2 mRNA levels in LMR20 cells [4]: reduced PSA levels and TMPRSS2 more extensively than the LNA gapmer ISIS 554221 or MDV3100
